Laboratory results taken from US7858644B2, “EP4 receptor antagonists” (Asterand UK Limited, priority 2003, dated 2010).
Structures can show the parent of a compound that is named as a salt.

Tests used:
[1] = target: T1, human EP2 receptor (Homo sapiens, UniProt P43116); test: Binding ability to human EP2 receptor ([3H]PGE2 displacement); conditions: read-out: pKi EP2 (converted)
T1 construct: expressed in transfected cells
Description: (§1) Membranes were prepared from cells stably transfected with human EP receptor cDNA. In brief, cells were cultured to confluency, scraped from culture flasks, and centrifuged (800 g, 8 minutes, 4° C.). Cells were twice washed in ice cold homogenisation buffer containing 10 mMTris-HCl, 1 mM EDTA. 2Na, 250 mM sucrose, 1 mM PMSF, 0.3 mM indomethacin, pH 7.4, homogenised and re-centrifuged as before. The supernatant was stored on ice and pellets re-homogenised and re-spun. Supernatants were pooled and centrifuged at 40000 g, 10 minutes, 4° C. Resultant membrane pellets were stored at −80° C. until use.
(§2) For assay, membranes expressing human EP4, EP3, EP2 or EP1 receptors were incubated in Millipore (MHVBN45) plates containing assay buffer, radiolabelled [^3H]PGE2 and 0.1 to 10 000 nM concentrations of compounds. Incubations were performed at suitable temperatures and for suitable times to allow equilibrium to be reached. Non-specific binding was determined in the presence of 10 uM PGE2. Bound and free radiolabel was separated by vacuum manifold filtration using appropriate wash buffers, and bound radiolabel was determined by scintillation counting. Constituents of each of the buffers are included in table 1 below.
(§3) This approach follows that set out in Kenakin, T. P., Pharmacologic analysis of drug receptor interaction. Raven Press, New York, 2nd edition.

[2] = target: T2, human EP3 receptor (Homo sapiens, UniProt P43115); test: Binding ability to human EP3 receptor ([3H]PGE2 displacement); conditions: membranes from cells stably transfected with human EP receptor cDNA; [3H]PGE2 2.5 nM; Cheng-Prusoff from IC50; read-out: pKi EP3 (converted)
T2 construct: expressed in transfected cells
T2 sequence (P43115 1-390): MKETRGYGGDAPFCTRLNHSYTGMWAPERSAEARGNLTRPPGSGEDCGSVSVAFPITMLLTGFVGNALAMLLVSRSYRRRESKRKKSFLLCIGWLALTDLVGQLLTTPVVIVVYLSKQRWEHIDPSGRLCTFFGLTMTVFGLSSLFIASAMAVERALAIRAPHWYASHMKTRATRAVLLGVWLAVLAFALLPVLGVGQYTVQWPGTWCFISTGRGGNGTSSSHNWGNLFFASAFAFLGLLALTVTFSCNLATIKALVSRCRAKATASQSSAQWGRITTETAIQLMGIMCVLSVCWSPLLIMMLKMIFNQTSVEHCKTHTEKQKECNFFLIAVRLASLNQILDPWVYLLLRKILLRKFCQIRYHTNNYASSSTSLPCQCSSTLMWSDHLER
Description: as §1, §2, §3

T1 sequence (P43116 whole entry): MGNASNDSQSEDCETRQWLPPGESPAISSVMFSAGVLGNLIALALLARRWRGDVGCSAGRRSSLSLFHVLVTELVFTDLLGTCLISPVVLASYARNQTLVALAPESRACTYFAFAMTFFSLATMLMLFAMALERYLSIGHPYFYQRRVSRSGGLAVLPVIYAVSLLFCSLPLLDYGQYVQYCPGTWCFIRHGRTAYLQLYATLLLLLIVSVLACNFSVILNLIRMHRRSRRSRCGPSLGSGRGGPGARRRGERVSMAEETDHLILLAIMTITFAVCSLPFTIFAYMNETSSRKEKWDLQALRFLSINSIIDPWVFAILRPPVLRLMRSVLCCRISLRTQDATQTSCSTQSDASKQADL

Row | Compound | Ki [1] [µM] | Ki [2] [µM]
1 | CC(=O)c1ccc(-c2ccc(OCc3cc(C(=O)O)oc3C)cc2)cc1 [Compound 21, 4-(4′-Acetyl-biphenyl-4-yloxymethyl)-5-methyl-furan-2-carboxylic acid] | > 10 | > 10
2 | Cc1oc(C(=O)O)cc1COc1ccc(-c2ccc(Cl)cc2)cc1 [Compound 27, 4-(4′-Chloro-biphenyl-4-yloxymethyl)-5-methyl-furan-2-carboxylic acid] | > 3.16 | > 10
3 | Cc1oc(C(=O)O)cc1COc1ccc(-c2ccc3c(c2)OCO3)cc1 [Compound 28, 4-(4-Benzo[1,3]dioxol-5-yl-phenoxymethyl)-5-methyl-furan-2-carboxylic acid] | > 10 | > 10
4 | Cc1oc(CCC(=O)O)cc1COc1ccc(-c2ccccc2)cc1 [Compound 37, 3-[4-(Biphenyl-4-yloxymethyl)-5-methyl-furan-2-yl]-propionic acid] | > 10 | > 10
5 | COc1ccc(-c2ccc(OCc3cc(C(=O)O)oc3C)cc2)nc1 [Compound 53, 4-[4-(5-Methoxy-pyridin-2-yl)-phenoxymethyl]-5-methyl-furan-2-carboxylic acid] | > 10 | > 10
6 | Cc1oc(C(=O)O)cc1COc1ccc(-c2ccc(C#N)cc2)cc1 [Compound 57, 4-(4′-Cyano-biphenyl-4-yloxymethyl)-5-methyl-furan-2-carboxylic acid] | > 10 | > 10
7 | Cc1oc(C(=O)O)cc1CCOc1ccc(-c2ccccc2)cc1 [Compound 72, 4-[2-(Biphenyl-4-yloxy)-ethyl]-5-methyl-furan-2-carboxylic acid] | > 10 | > 10
8 | O=C(O)c1cc(COc2ccc(-c3ccccc3)cc2)co1 [Compound 77, 4-(Biphenyl-4-yloxymethyl)-furan-2-carboxylic acid] | > 10 | > 10
9 | CC(C)c1oc(C(=O)O)cc1COc1ccc(-c2ccccc2)cc1 [Compound 85, 4-(Biphenyl-4-yloxymethyl)-5-isopropyl-furan-2-carboxylic acid] | > 10 | > 10
10 | O=C(O)c1cc(COc2ccc(-c3ccccc3)cc2)c(C(F)(F)F)o1 [Compound 90, 4-(Biphenyl-4-yloxymethyl)-5-trifluoromethyl-furan-2-carboxylic acid] | > 10 | > 10
11 | COc1ccc(-c2ccc(OCc3cc(C(=O)O)oc3C)cc2)cc1OC [Compound 96, 4-(3′,4′-Dimethoxy-biphenyl-4-yloxymethyl)-5-methyl-furan-2-carboxylic acid] | > 10 | > 10
12 | Cc1oc(C(=O)O)cc1COc1ccc(-c2ccc(CO)cc2)cc1 [Compound 110, 4-(4′-Hydroxymethyl-biphenyl-4-yloxymethyl)-5-methyl-furan-2-carboxylic acid] | > 10 | > 10
13 | Cc1oc(C(=O)O)cc1COc1ccc(-c2ccc(OC(F)(F)F)cc2)cc1 [Compound 114, 5-Methyl-4-(4′-trifluoromethoxy-biphenyl-4-yloxymethyl)-furan-2-carboxylic acid] | > 10 | > 10
14 | COc1cccc(-c2ccc(OCc3cc(C(=O)O)oc3C)cc2)c1 [Compound 116, 4-(3′-Methoxy-biphenyl-4-yloxymethyl)-5-methyl-furan-2-carboxylic acid] | > 10 | > 10
15 | COc1ccccc1-c1ccc(OCc2cc(C(=O)O)oc2C)cc1 [Compound 126, 4-(2′-Methoxy-biphenyl-4-yloxymethyl)-5-methyl-furan-2-carboxylic acid] | > 10 | > 10
16 | Cc1oc(C(=O)O)cc1COc1ccc(-c2ccc(OC(F)F)cc2)cc1 [Compound 129, 4-(4′-Difluoromethoxy-biphenyl-4-yloxymethyl)-5-methyl-furan-2-carboxylic acid] | > 10 | > 10

Next, values leading:

Row | Ki [1] [µM] | Ki [2] [µM] | Compound
17 | > 10 | > 10 | COc1ccc(-c2ccc(OCc3cc(C(=O)O)oc3C)cc2)cc1 [Compound 4, 4-(4′-Methoxy-biphenyl-4-yloxymethyl)-5-methyl-furan-2-carboxylic acid]
18 | > 3.16 | > 10 | COc1ccc(-c2ccc(OCc3cc(C(=O)NS(=O)(=O)c4ccccc4)oc3C)cc2)cc1 [Compound 5, N-[4-(4′-Methoxy-biphenyl-4-yloxymethyl)-5-methyl-furan-2-carbonyl]-benzenesulfonamide]
19 | > 10 | > 10 | COc1ccc(-c2ccc(OCc3cc(C(=O)NS(=O)(=O)Cc4ccccc4)oc3C)cc2)cc1 [Compound 6, N-[4-(4′-Methoxy-biphenyl-4-yloxymethyl)-5-methyl-furan-2-carbonyl]-C-phenyl-methanesulfonamide]
20 | > 10 | > 10 | COc1ccc(-c2ccc(OCc3cc(C(=O)NS(C)(=O)=O)oc3C)cc2)cc1 [Compound 7, N-[4-(4′-Methoxy-biphenyl-4-yloxymethyl)-5-methyl-furan-2-carbonyl]-methanesulfonamide]
21 | > 10 | > 10 | CCCS(=O)(=O)NC(=O)c1cc(COc2ccc(-c3ccc(OC)cc3)cc2)c(C)o1 [Compound 8, Propane-1-sulfonic acid [4-(4′-methoxy-biphenyl-4-yloxymethyl)-5-methyl-furan-2-carbonyl]-amide]
22 | > 10 | > 10 | COc1ccc(-c2ccc(OCc3cc(C(=O)NS(=O)(=O)c4c(C)noc4C)oc3C)cc2)cc1 [Compound 9, 3,5-Dimethyl-isoxazole-4-sulfonic acid [4-(4′-methoxy-biphenyl-4-yloxymethyl)-5-methyl-furan-2-carbonyl]-amide]
23 | > 3.16 | > 10 | COc1ccc(-c2ccc(OCc3cc(C(=O)NS(=O)(=O)c4cccs4)oc3C)cc2)cc1 [Compound 10, Thiophene-2-sulfonic acid [4-(4′-methoxy-biphenyl-4-yloxymethyl)-5-methyl-furan-2-carbonyl]-amide]
24 | > 10 | > 10 | COc1ccc(-c2ccc(OCc3cc(C(=O)NS(=O)(=O)c4ccc(C)cn4)oc3C)cc2)cc1 [Compound 11, 5-Methyl-pyridyl-2-sulfonic acid [4-(4′-methoxy-biphenyl-4-yloxymethyl)-5-methyl-furan-2-carbonyl]-amide]
25 | > 10 | > 10 | COc1ccc(-c2ccc(OCc3cc(C(=O)NS(=O)(=O)c4ccc(CN)cc4)oc3C)cc2)cc1 [Compound 12, 4-Aminomethyl-N-[4-(4′-methoxy-biphenyl-4-yloxymethyl)-5-methyl-furan-2-carbonyl]-benzenesulfonamide trifluoroacetate]
26 | > 10 | > 10 | COc1ccc(-c2ccc(OCc3cc(C(=O)NS(=O)(=O)c4ccc(O)cc4)oc3C)cc2)cc1 [Compound 13, 4-Hydroxy-N-[4-(4′-methoxy-biphenyl-4-yloxymethyl)-5-methyl-furan-2-carbonyl]-benzenesulfonamide]
27 | > 10 | > 10 | Cc1oc(C(=O)NS(=O)(=O)c2ccccc2)cc1COc1ccc(-c2ccccc2)cc1 [Compound 19, N-[4-(Biphenyl-4-yloxymethyl)-5-methyl-furan-2-carbonyl]-benzenesulfonamide]
28 | > 10 | > 10 | CC(=O)c1ccc(-c2ccc(OCc3cc(C(=O)NS(=O)(=O)c4ccccc4)oc3C)cc2)cc1 [Compound 22, N-[4-(4′-Acetyl-biphenyl-4-yloxymethyl)-5-methyl-furan-2-carbonyl]-benzenesulfonamide]
29 | > 10 | > 10 | COc1ccc(-c2ccc(OCc3cc(C(=O)NS(=O)(=O)CCCN4CCOCC4)oc3C)cc2)cc1 [Compound 59, 3-Morpholin-4-yl-propane-1-sulphonic acid [4-(4′-methoxy-biphenyl-4-yloxymethyl)-5-methyl-furan-2-carbonyl]-amide]
30 | > 10 | > 10 | COc1ccc(-c2ccc(OCc3cc(C(=O)NS(=O)(=O)N(C)C)oc3C)cc2)cc1 [Compound 122, N-[4-(4′-Methoxy-biphenyl-4-yloxymethyl)-5-methyl-furan-2-carbonyl]-dimethylamino-sulphonamide]
31 | > 10 | > 10 | COc1ccccc1-c1ccc(OCc2cc(C(=O)NS(=O)(=O)c3ccccc3)oc2C)cc1 [Compound 127, N-[4-(2′-Methoxy-biphenyl-4-yloxymethyl)-5-methyl-furan-2-carbonyl]-benzenesulphonamide]
32 | > 3.16 | > 10 | Cc1oc(C(=O)NS(=O)(=O)c2ccccc2)cc1COc1ccc(-c2ccc(OC(F)F)cc2)cc1 [Compound 130, N-[4-(4′-Difluoromethoxy-biphenyl-4-yloxymethyl)-5-methyl-furan-2-carbonyl]-benzenesulphonamide]
